Laboratory results as given in patent publication US20140309188A1, “USE OF PHARMACEUTICAL COMPOSITION COMPRISING DEOXYNUCLEOSIDE AND NUCLEOSIDE FOR TREATMENT OF TUMOR” (priority 2011, published 2014).
“And” between values parts separate entries of the source, which are not always exact repeats. Identical values can stand only once.

Experiments:
Assay type in all cases: cell-based
[1] = test system: Human gastric cancer cell lines BGC823; assay: MTT growth inhibition on human gastric cancer cell lines BGC823; settings: concentrations same as Example 1
Procedure: (§1) Human hepatoma cells BEL-7402 and human lung cancer cells PG provided by Institute of Biochemistry and Cell Biology, SIBS, CAS were cultured in the culture medium RPMI 1640 comprising 10% fetal bovine serum. The cells in the exponential growth phase were collected, digested with 0.25% trypsin, inoculated to a 96-well plate with each well having 3×10^3 cells, and then cultured in an incubator having 5% CO2 at 37° C. for 24 hours. Each experimental group was provided with 8 wells. 60 μL of a nucleoside solution having a total concentration of 10.0 mmol/L was added to each well, and the culture medium was replenished to ensure each well to have a volume of 200 μL. The control group was administered with 5-FU having the same concentration as the nucleoside solution. The obtained cells were diluted with serum-free medium and filtered with sterile microporous membrane having an aperture size of 0.22 μm. […] Thereafter, 20 μL of MTT solution having a concentration of 5 mg/mL was added to each well of the 96-well plate, which was further cultured in the incubator having 5% CO2 at 37° C. for 4 hours. After the culture, the supernate in the wells was removed. 150 μL of DMSO was added to each well. The 96-well plate was shaken for 10 minutes to facilitate the dissolution of the crystals. An automatic microplate reader (Thermo, Multiskan MK3) was employed to measure the absorbancy at 570 nm. Each experimental group was provided with 8 wells, and each experiment was repeated for three times. Table 1 lists the average value of the three experiments.
(§2) Survival rate of tumor cells (%)=measured OD value of experimental wells/OD value of wells of control group
(§3) Growth inhibition rate of tumor cells=100%−Survival rate of tumor cells (%)
(§4) The experimental groups and the control group were administered with different nucleosides or a combination thereof, as listed in Table 4. Human gastric cancer cell lines BGC823 was provided by the Institute of Basic Medical Sciences (IBMS) of the Chinese Academy of Medical Sciences (CAMS). The experimental method was the same as that in Example 1. The concentrations of the nucleoside combination, the single deoxynucleoside, and 5-FU are all the same as that in Example 1.

[2] = test system: Human hepatoma cells BEL-7402; assay: MTT growth inhibition on human hepatoma cells BEL-7402; settings: for Growth inhibition rate (%) on Bel-7402: Example 3, concentrations same as Example 1; for inhibition at 10000 µM (stock): Homo sapiens, Bel-7402, read-out: Growth inhibition rate (%) on tumor cells Bel-7402
Procedure: as §1, §2, §3
1. Experimental method: The experimental groups and the control group were administered with different nucleosides or a combination thereof, as listed in Table 3. Human hepatoma cells Bel-7402 was provided by Institute of Biochemistry and Cell Biology, SIBS, CAS. The experimental method was the same as that in Example 1. The concentrations of the nucleoside combination, the single nucleoside, and 5-FU are all the same as that in Example 1.

[3] = test system: Human colon cancer cell line HT-29; assay: MTT growth inhibition on human colon cancer cell line HT-29; settings: 48 hours; concentrations same as Example 1 (total 10.0 mmol/L solution, 60 μL per 200 μL well)
Procedure: (§5) Human hepatoma cells BEL-7402 and human lung cancer cells PG provided by Institute of Biochemistry and Cell Biology, SIBS, CAS were cultured in the culture medium RPMI 1640 comprising 10% fetal bovine serum. The cells in the exponential growth phase were collected, digested with 0.25% trypsin, inoculated to a 96-well plate with each well having 3×10^3 cells, and then cultured in an incubator having 5% CO2 at 37° C. for 24 hours. Each experimental group was provided with 8 wells. 60 μL of a nucleoside solution having a total concentration of 10.0 mmol/L was added to each well, and the culture medium was replenished to ensure each well to have a volume of 200 μL. The control group was administered with 5-FU having the same concentration as the nucleoside solution. The obtained cells were diluted with serum-free medium and filtered with sterile microporous membrane having an aperture size of 0.22 μm. 48 hours later, cell morphology was observed and photographed by an inverted microscope. Thereafter, 20 μL of MTT solution having a concentration of 5 mg/mL was added to each well of the 96-well plate, which was further cultured in the incubator having 5% CO2 at 37° C. for 4 hours. After the culture, the supernate in the wells was removed. 150 μL of DMSO was added to each well. The 96-well plate was shaken for 10 minutes to facilitate the dissolution of the crystals. An automatic microplate reader (Thermo, Multiskan MK3) was employed to measure the absorbancy at 570 nm. Each experimental group was provided with 8 wells, and each experiment was repeated for three times. Table 1 lists the average value of the three experiments.
as §2, §3
as §4, with “2.” for “4.”, “colon” for “gastric”, “line HT-29” for “lines BGC823”

[4] = test system: Human pancreatic cancer cell line PANC-1; assay: MTT growth inhibition on human pancreatic cancer cell line PANC-1; settings: different dosage ratios of dA, dG, C, total concentration same as Example 1
[5] = test system: Human glioma cell line SHG-44; assay: MTT growth inhibition on human glioma cell line SHG-44; settings: concentrations same as Example 1
Procedure: as §5, with “After the culture, the supernate in the wells was removed. 150 μL of DMSO was added to each well. The 96-well plate was shaken for 10 minutes to facilitate the dissolution of the crystals.” left out, “Each experimental group was provided with 8 wells, and each experiment was repeated for three times. Table 1 lists the average value of the three experiments.” left out
Survival rate of tumor cells (%)=measured OD value of experimental wells/OD value of wells of control group […]

[6] = test system: human lung cancer cells PG; assay: MTT growth inhibition on human lung cancer cells PG; settings: 48 hours, 60 μL of 10.0 mmol/L solution per 200 μL well, average of three experiments; for inhibition at 10000 µM (stock): Homo sapiens, read-out: Growth inhibition rate (%) on tumor cells PG
Procedure: as §5, §2, §3

[7] = test system: Human breast cancer cell lines Bcap-37; assay: MTT growth inhibition on human breast cancer cell lines Bcap-37; settings: concentrations same as Example 1
Procedure: as §5, §2, §3
as §4, with “5.” for “4.”, “breast” for “gastric”, “Bcap-37” for “BGC823”, “nucleoside,” for “deoxynucleoside,”

[8] = test system: Human cervical carcinoma Hela; assay: MTT growth inhibition on human cervical carcinoma Hela; settings: concentrations same as Example 1
[9] = 48 hours, 60 μL of 10.0 mmol/L solution per 200 μL well, MTT, average of three experiments

Structure (SMILES) | Growth inhibition rate (%) on BGC823 ([1]; 48 hours) [%] | Growth inhibition rate (%) on BGC823 ([1]; 72 hours) [%] | Growth inhibition rate (%) on HT-29 [3] | Growth inhibition rate (%) on Bcap-37 ([7]; 48 hours) [%] | Growth inhibition rate (%) on Bcap-37 ([7]; 72 hours) [%] | inhibition at 10000 µM (stock) [2, 9] [%] | inhibition at 10000 µM (stock) [6] [%] | other results
O=c1[nH]cc(F)c(=O)[nH]1 [5-FU, reference compound] | 91 | 95 | 96% and 95% and 91% and 93% | 92 | 95 | – | – | Growth inhibition rate (%) on tumor cells Bel-7402 [2, 9]: 91%; Growth inhibition rate (%) on Bel-7402 ([2]; 48 hours): 91%; Growth inhibition rate (%) on Bel-7402 ([2]; 72 hours): 95%; Growth inhibition rate (%) on human pancreatic cancer cell line PANC-1 ([4]; 48 hours): 93%; Growth inhibition rate (%) on human pancreatic cancer cell line PANC-1 ([4]; 72 hours): 95%; Growth inhibition rate (%) on SHG-44 ([5]; 48 hours): 91%; Growth inhibition rate (%) on SHG-44 ([5]; 72 hours): 96%; Growth inhibition rate (%) on tumor cells PG [6]: 90%; Growth inhibition rate (%) on Hela ([8]; 48 hours): 92%; Growth inhibition rate (%) on Hela ([8]; 72 hours): 96%
Nc1ncnc2c1ncn2[C@@H]1O[C@H](CO)[C@@H](O)[C@H]1O [A, adenosine] | – | – | – | – | – | 86 | 84 | –
Nc1ccn([C@@H]2O[C@H](CO)[C@@H](O)[C@H]2O)c(=O)n1 [C, cytidine] | – | – | – | 65 | 71 | 65 | 53 | –
Nc1nc2c(ncn2[C@@H]2O[C@H](CO)[C@@H](O)[C@H]2O)c(=O)[nH]1 [G, guanosine] | – | – | – | – | – | 83 | 87 | –
Cc1cn([C@H]2C[C@H](O)[C@@H](CO)O2)c(=O)[nH]c1=O [T, thymidine] | – | – | 85% | – | – | 87 | 88 | –
O=c1ccn([C@@H]2O[C@H](CO)[C@@H](O)[C@H]2O)c(=O)[nH]1 [U, uridine] | – | – | – | 58 | 67 | 49 | 52 | –
Nc1ncnc2c1ncn2[C@H]1C[C@H](O)[C@@H](CO)O1 [dA, deoxyadenosine] | 89 | 91 | 86% | – | – | 96 | 94 | –
Nc1ccn([C@H]2C[C@H](O)[C@@H](CO)O2)c(=O)n1 [dC, deoxycytidine] | – | – | 89% | – | – | 86 | 84 | –
Nc1nc2c(ncn2[C@H]2C[C@H](O)[C@@H](CO)O2)c(=O)[nH]1 [dG, deoxyguanosine] | 85 | 90 | 91% | – | – | 95 | 96 | Growth inhibition rate (%) on Bel-7402 ([2]; 48 hours): 87%; Growth inhibition rate (%) on Bel-7402 ([2]; 72 hours): 93%
